PubChem BioAssay AID330 (DTP/NCI, 2004)
Where “and” joins values, the source holds several entries; their conditions need not be identical. Identical values can stand only once. Toxic doses and inconclusive results are not listed. Rule for the calls: active = survival T/C of 150% or more; inactive = T/C below 125% in these data.

System: P388 leukemia ip, CD2F1 mice, survival T/C
Test: NCI In Vivo Anticancer Drug Screen. Data for tumor model P388 Leukemia (intraperitoneal) in CD2F1 (CDF1) mice
Conditions: endpoint: median survival time, higher = longer survival
How it was run: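 Mice carrying the transplanted tumor received test compound or vehicle. Survival was recorded in each group, and the value is the treated-group measurement divided by that of the vehicle-treated control group.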

[1] = dose: 25.0 mg/kg/injection, schedule: Q01DX005 (ip), vehicle: saline with Tween-80
[2] = dose: 50.0 mg/kg/injection, schedule: Q01DX005 (ip), vehicle: saline with Tween-80
[3] = dose: 50.0 mg/kg/injection, schedule: Q01DX009 (ip), vehicle: saline
[4] = dose: 100.0 mg/kg/injection, schedule: Q01DX009 (ip), vehicle: saline
[5] = dose: 200.0 mg/kg/injection, schedule: Q01DX009 (ip), vehicle: saline
[6] = dose: 25.0 mg/kg/injection, schedule: Q01DX009 (ip), vehicle: saline
[7] = dose: 50.0 mg/kg/injection, schedule: Q01DX009 (ip), vehicle: saline with Tween-80
[8] = dose: 100.0 mg/kg/injection, schedule: Q01DX009 (ip), vehicle: saline with Tween-80
[9] = dose: 200.0 mg/kg/injection, schedule: Q01DX009 (ip), vehicle: saline with Tween-80
[10] = dose: 100.0 mg/kg/injection, schedule: Q01DX005 (ip), vehicle: saline with Tween-80
[11] = dose: 200.0 mg/kg/injection, schedule: Q01DX005 (ip), vehicle: saline with Tween-80
[12] = dose: 50.0 mg/kg/injection, schedule: Q01DX009 (ip), vehicle: Klucel (hydroxypropylcellulose) (HPC)
[13] = dose: 100.0 mg/kg/injection, schedule: Q01DX009 (ip), vehicle: Klucel (hydroxypropylcellulose) (HPC)
[14] = dose: 25.0 mg/kg/injection, schedule: Q01DX009 (ip), vehicle: saline with Tween-80
[15] = dose: 50.0 mg/kg/injection, schedule: Q01DX005 (ip), vehicle: saline
[16] = dose: 100.0 mg/kg/injection, schedule: Q01DX005 (ip), vehicle: saline
[17] = dose: 100.0 mg/kg/injection, schedule: Q04DX003 (ip), vehicle: saline with Tween-80

Measured: T/C

NC(Cc1cc(I)c(Oc2cc(I)c(O)c(I)c2)c(I)c1)C(=O)O (centres undefined)
inactive: dose: 0.25 mg/kg/injection, schedule: Q01DX009 (ip), vehicle: saline 99 % of control | dose: 0.5 mg/kg/injection, schedule: Q01DX009 (ip), vehicle: saline 103 % of control | dose: 1.0 mg/kg/injection, schedule: Q01DX009 (ip), vehicle: saline 99 % of control | dose: 2.0 mg/kg/injection, schedule: Q01DX009 (ip), vehicle: saline 94 % of control | dose: 4.0 mg/kg/injection, schedule: Q01DX009 (ip), vehicle: saline 88 % of control

Cc1cc(N(C)C)c2ccc(N(C)C)cc2n1
inactive: dose: 12.5 mg/kg/injection, schedule: Q01DX005 (ip), vehicle: saline with Tween-80 97 % of control | [1] 98 % of control | [2] 99 % of control and 104 % of control

c1ccc(C(Sc2ncnc3nc[nH]c23)c2ccccc2)cc1
inactive: [3] 102 % of control | [4] 102 % of control | [5] 111 % of control

CCn1c2ccc(C(=O)CCCN(C)C)cc2c2cc(C(=O)CCCN(C)C)ccc21
inactive: dose: 12.5 mg/kg/injection, schedule: Q01DX009 (ip), vehicle: saline 118 % of control and 122 % of control | [6] 108 % of control and 116 % of control

O=C(O)CC(NC(=O)OCc1ccccc1)C(=O)OCc1ccccc1 (centres undefined)
inactive: [7] 100 % of control | [8] 104 % of control | [9] 104 % of control

C[Si](C)(C)O/C=C1\CCc2ccccc2C1=O
inactive: [2] 100 % of control | [10] 101 % of control | [11] 114 % of control

O=S1(=O)CCN(Cc2ccco2)CC1
inactive: [12] 100 % of control | [13] 99 % of control

CN1CC(CO)=CC2c3cccc4[nH]cc(c34)CC21 (centres undefined)
inactive: [14] 111 % of control | [7] 104 % of control | [8] 104 % of control

COc1ccc2ccc(CO)cc2c1OC
inactive: dose: 25.0 mg/kg/injection, schedule: Q01DX009 (ip), vehicle: other 98 % of control | dose: 50.0 mg/kg/injection, schedule: Q01DX009 (ip), vehicle: other 92 % of control | dose: 100.0 mg/kg/injection, schedule: Q01DX009 (ip), vehicle: other 90 % of control | dose: 200.0 mg/kg/injection, schedule: Q01DX009 (ip), vehicle: other 99 % of control | dose: 400.0 mg/kg/injection, schedule: Q01DX009 (ip), vehicle: other 90 % of control

COC(=O)C(C(=O)OC)=C(NS(=O)(=O)c1ccc(C)cc1)SC
inactive: dose: 12.5 mg/kg/injection, schedule: Q04DX002 (ip), vehicle: saline with Tween-80 100 % of control | dose: 25.0 mg/kg/injection, schedule: Q04DX002 (ip), vehicle: saline with Tween-80 100 % of control | dose: 50.0 mg/kg/injection, schedule: Q04DX002 (ip), vehicle: saline with Tween-80 109 % of control

CCCCCCCNN=NCC(C)C(C)CC (centres undefined)
inactive: dose: 100.0 mg/kg/injection, schedule: Q04DX003 (ip), vehicle: saline 95 % of control | dose: 200.0 mg/kg/injection, schedule: Q04DX003 (ip), vehicle: saline 95 % of control | dose: 400.0 mg/kg/injection, schedule: Q04DX003 (ip), vehicle: saline 97 % of control

CC(C)(C)N1CCOCN2CCCCC2CCN(C(C)(C)C)CCOCN2CCCCC2CC1 (centres undefined)
inactive: [15] 100 % of control | [16] 99 % of control | dose: 200.0 mg/kg/injection, schedule: Q01DX005 (ip), vehicle: saline 100 % of control

CSCCCNCc1ccc([N+](=O)[O-])cc1
inactive: [15] 97 % of control | [16] 111 % of control

COc1ccc(NS(=O)(=O)c2ccc(C)cc2)c([N+](=O)[O-])c1
inactive: [12] 116 % of control | [13] 115 % of control | dose: 200.0 mg/kg/injection, schedule: Q01DX009 (ip), vehicle: Klucel (hydroxypropylcellulose) (HPC) 115 % of control

CNCCCCCc1cc(-c2ccc([N+](=O)[O-])cc2)n[nH]1
inactive: dose: 25.0 mg/kg/injection, schedule: Q04DX003 (ip), vehicle: saline with Tween-80 103 % of control | dose: 50.0 mg/kg/injection, schedule: Q04DX003 (ip), vehicle: saline with Tween-80 103 % of control | [17] 100 % of control and 94 % of control

Cc1nccc2c(C)c3c(cc12)c1ccccc1n3C
inactive: dose: 5.0 mg/kg/injection, schedule: Q01DX005 (ip), vehicle: saline 107 % of control | dose: 10.0 mg/kg/injection, schedule: Q01DX005 (ip), vehicle: saline 107 % of control | dose: 20.0 mg/kg/injection, schedule: Q01DX005 (ip), vehicle: saline 99 % of control

CN(C)N=Nc1cccc(Cl)c1
inactive: dose: 6.25 mg/kg/injection, schedule: Q01DX009 (ip), vehicle: Klucel (hydroxypropylcellulose) (HPC) 95 % of control | dose: 12.5 mg/kg/injection, schedule: Q01DX009 (ip), vehicle: Klucel (hydroxypropylcellulose) (HPC) 105 % of control | dose: 12.5 mg/kg/injection, schedule: Q01DX009 (ip), vehicle: saline with Tween-80 100 % of control | dose: 25.0 mg/kg/injection, schedule: Q01DX009 (ip), vehicle: Klucel (hydroxypropylcellulose) (HPC) 98 % of control | dose: 25.0 mg/kg/injection, schedule: Q01DX009 (ip), vehicle: saline + alcohol 107 % of control | [14] 98 % of control | [6] 91 % of control | [12] 100 % of control | dose: 50.0 mg/kg/injection, schedule: Q01DX009 (ip), vehicle: saline + alcohol 120 % of control | [7] 107 % of control | [3] 99 % of control | [8] 105 % of control | [4] 97 % of control | [5] 100 % of control

O=c1oc2cc(O)ccc2c2oc3ccccc3c12
inactive: dose: 6.2 mg/kg/injection, schedule: Q01DX007 (ip), vehicle: carboxymethylcellulose (CMC) 91 % of control | dose: 12.5 mg/kg/injection, schedule: Q01DX007 (ip), vehicle: carboxymethylcellulose (CMC) 91 % of control | dose: 25.0 mg/kg/injection, schedule: Q01DX007 (ip), vehicle: carboxymethylcellulose (CMC) 100 % of control

CC(C)C(Br)C(=O)NCC(=O)O (centres undefined)
inactive: [17] 100 % of control | dose: 200.0 mg/kg/injection, schedule: Q04DX003 (ip), vehicle: saline with Tween-80 95 % of control | dose: 400.0 mg/kg/injection, schedule: Q04DX003 (ip), vehicle: saline with Tween-80 100 % of control

NC(CC(=O)O)CC(=O)O
inactive: [1] 93 % of control | [2] 95 % of control | [10] 98 % of control | [11] 90 % of control | dose: 400.0 mg/kg/injection, schedule: Q01DX005 (ip), vehicle: saline with Tween-80 89 % of control

CN1C2Cc3cc4c(cc3[C@@]23Cc2ccc5c(c2[C@@H]1O3)OCO5)OCO4 (some centres undefined)
inactive: dose: 8.0 mg/kg/injection, schedule: Q01DX005 (ip), vehicle: Klucel (hydroxypropylcellulose) (HPC) 94 % of control | dose: 16.0 mg/kg/injection, schedule: Q01DX005 (ip), vehicle: Klucel (hydroxypropylcellulose) (HPC) 109 % of control | dose: 32.0 mg/kg/injection, schedule: Q01DX005 (ip), vehicle: Klucel (hydroxypropylcellulose) (HPC) 94 % of control | dose: 64.0 mg/kg/injection, schedule: Q01DX005 (ip), vehicle: Klucel (hydroxypropylcellulose) (HPC) 98 % of control

[O-][n+]1c2ccccc2nc2ccccc21
inactive: dose: 50.0 mg/kg/injection, schedule: Q01DX005 (ip), vehicle: Klucel (hydroxypropylcellulose) (HPC) 115 % of control | dose: 100.0 mg/kg/injection, schedule: Q01DX005 (ip), vehicle: Klucel (hydroxypropylcellulose) (HPC) 110 % of control | dose: 200.0 mg/kg/injection, schedule: Q01DX005 (ip), vehicle: Klucel (hydroxypropylcellulose) (HPC) 100 % of control

C=C(C)CCOS(=O)(=O)c1ccc(C)cc1
inactive: [7] 102 % of control | [8] 110 % of control | [9] 90 % of control

CN1CCC2(CC1)N=C1CCN(C)CC1S2 (centres undefined)
inactive: dose: 100.0 mg/kg/injection, schedule: Q01DX001 (ip), vehicle: saline with Tween-80 102 % of control | dose: 200.0 mg/kg/injection, schedule: Q01DX001 (ip), vehicle: saline with Tween-80 109 % of control

CC(=N\NC(N)=S)/C(C)=N/Nc1ccccc1
inactive: dose: 100.0 mg/kg/injection, schedule: Q04DX003 (ip), vehicle: Klucel (hydroxypropylcellulose) (HPC) 106 % of control | dose: 200.0 mg/kg/injection, schedule: Q04DX003 (ip), vehicle: Klucel (hydroxypropylcellulose) (HPC) 100 % of control | dose: 400.0 mg/kg/injection, schedule: Q04DX003 (ip), vehicle: Klucel (hydroxypropylcellulose) (HPC) 100 % of control
